Test results published in paper PMC6409773 (Marine Drugs, 2019).

Tests used:
D4 (h) Dopamine [1] = target: T1, D4 (h) Dopamine (Homo sapiens, UniProt P21917); experiment: Cell-based functional GPCR assay, antagonist effect (cAMP); conditions: read-out: % Inhibition of Control Agonist Response
T1 sequence (P21917 1-419): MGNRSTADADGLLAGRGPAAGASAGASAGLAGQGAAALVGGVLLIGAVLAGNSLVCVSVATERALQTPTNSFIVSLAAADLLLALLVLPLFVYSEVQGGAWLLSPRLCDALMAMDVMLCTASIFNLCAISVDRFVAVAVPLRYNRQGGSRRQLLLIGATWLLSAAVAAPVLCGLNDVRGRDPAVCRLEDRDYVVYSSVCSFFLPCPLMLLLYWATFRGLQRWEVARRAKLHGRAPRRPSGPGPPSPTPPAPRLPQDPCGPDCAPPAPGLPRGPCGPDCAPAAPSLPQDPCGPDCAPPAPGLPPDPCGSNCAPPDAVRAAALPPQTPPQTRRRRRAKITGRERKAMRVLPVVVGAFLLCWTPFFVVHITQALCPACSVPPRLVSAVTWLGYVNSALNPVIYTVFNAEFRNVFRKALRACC
Procedure: (§1) A functional GPCR cell-based assay presents readouts of multiple second messengers including cAMP for Gi and Gs-coupled receptors and IP1 and IP3/calcium flux for Gq-coupled receptors. Functional assays were conducted at Eurofins Cerep (Le Bois I’Eveque, France) using transected cells expressing human cloned receptors. The in-house functional assay protocol (https://www.eurofinsdiscoveryservices.com/cms/cms-content/services/in-vitro-assays/gpcrs/functional/) and experimental conditions are shown in Supplementary Table S1. Stable cell lines expressing recombinant GPCRs were used in this study.
(§2) . Following incubation, cells were lysed and a fluorescence acceptor (D2-labeled cAMP) and fluorescence donor (anti-cAMP antibody with europium cryptate) were added. After 60 min at room temperature, fluorescence transfer was measured at λex = 337 nm and λem = 620 and 665 nm using a microplate reader (Envison, Perkin Elmer, Waltham, MA, USA). Cyclic AMP concentration was determined by dividing the signal measured at 665 nm by that measured at 620 nm (ratio). […].
(§3) Cellular agonist effect was calculated as the percentage of the control response to a known reference agonist for each target and the cellular antagonist effect was calculated as the percentage inhibition of the control reference agonist response for each target. Results are expressed as a percentage of control agonist response or inverse agonist response (measured response/control response × 100) and as percent inhibition of control agonist response [100 − (measured response/control response × 100)] obtained in the presence of the eckol.

D3 (h) Dopamine [2] = target: T2, D3 (h) Dopamine (Homo sapiens, UniProt P35462); experiment: as above; conditions: read-out: % Inhibition of Control Agonist Response
Procedure: as §1, §2, §3

D1 (h) Dopamine [3] = target: T3, D1 (h) Dopamine (Homo sapiens, UniProt P21728); experiment: as above; conditions: read-out: % Inhibition of Control Agonist Response
Procedure: as §1, §2, §3

[4] = target: T4, V1A (h) Vasopressin/Oxytocin (Homo sapiens, UniProt P37288); experiment: Cell-based functional GPCR assay, agonist effect; conditions: read-out: % of Control Agonist Response
Procedure: as §1
(§4) The method used to quantify the intracellular [Ca^2+] level varied slightly according to receptor type. However, in general, cells expressing different receptors (Table 1) were transfected with an expression vector encoding a receptor polypeptide and were allowed to grow for a time period sufficient for that receptor to be expressed. A fluorescent probe (Fluo8 Direct, Invitrogen, Carlsbad, CA, USA) mixed with probencid in HBSS buffer (Invitrogen, Carlsbad, CA, USA) supplemented with […] (Invitrogen) (pH 7.4) was then added to each well and allowed to equilibrate with the cells for 60 min at 37 °C. Thereafter, assay plates were positioned in a microplate reader (CellLux, PerkinElmer, Waltham, MA, USA) and eckol (25 and 50 μM), reference agonist, or HBSS buffer (basal control) were added, and measurements of the change in fluorescence intensity, which varies proportionally to the free cytosolic Ca^2+ ion concentration, were taken. Standard reference control (agonist and antagonist) values are presented in Table 1, and controls were included in each experiment at several concentrations to generate a concentration-response curve from which to calculate EC50 values.
as §3

NK1 (h) Tachykinin [5] = target: T5, NK1 (h) Tachykinin (Homo sapiens, UniProt P25103); experiment: Cell-based functional GPCR assay, agonist effect; conditions: read-out: % of Control Agonist Response
Procedure: as §1, §4, §3

5-HT1A (h) Serotonin [6] = target: T6, 5-HT1A (h) Serotonin (Homo sapiens, UniProt P08908); experiment: Cell-based functional GPCR assay, agonist effect; conditions: read-out: % of Control Agonist Response
T6 sequence (P08908 1-422): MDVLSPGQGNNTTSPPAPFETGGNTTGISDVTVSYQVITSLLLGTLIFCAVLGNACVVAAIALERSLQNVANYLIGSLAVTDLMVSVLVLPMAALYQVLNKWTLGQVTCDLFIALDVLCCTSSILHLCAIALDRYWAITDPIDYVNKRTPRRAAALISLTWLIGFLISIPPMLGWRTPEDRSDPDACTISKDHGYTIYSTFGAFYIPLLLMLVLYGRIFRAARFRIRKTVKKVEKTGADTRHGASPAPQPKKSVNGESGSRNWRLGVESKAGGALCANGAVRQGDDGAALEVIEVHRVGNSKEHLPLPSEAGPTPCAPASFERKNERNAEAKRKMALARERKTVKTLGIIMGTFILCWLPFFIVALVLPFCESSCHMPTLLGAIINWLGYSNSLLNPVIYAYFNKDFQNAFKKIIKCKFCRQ
Procedure: as §1, §4, §3

[7] = target: T7, M5 (h) Acetylcholine (muscarinic) (Homo sapiens, UniProt P08912); experiment: Cell-based functional GPCR assay, agonist effect; conditions: read-out: % of Control Agonist Response
T7 sequence (P08912 1-532): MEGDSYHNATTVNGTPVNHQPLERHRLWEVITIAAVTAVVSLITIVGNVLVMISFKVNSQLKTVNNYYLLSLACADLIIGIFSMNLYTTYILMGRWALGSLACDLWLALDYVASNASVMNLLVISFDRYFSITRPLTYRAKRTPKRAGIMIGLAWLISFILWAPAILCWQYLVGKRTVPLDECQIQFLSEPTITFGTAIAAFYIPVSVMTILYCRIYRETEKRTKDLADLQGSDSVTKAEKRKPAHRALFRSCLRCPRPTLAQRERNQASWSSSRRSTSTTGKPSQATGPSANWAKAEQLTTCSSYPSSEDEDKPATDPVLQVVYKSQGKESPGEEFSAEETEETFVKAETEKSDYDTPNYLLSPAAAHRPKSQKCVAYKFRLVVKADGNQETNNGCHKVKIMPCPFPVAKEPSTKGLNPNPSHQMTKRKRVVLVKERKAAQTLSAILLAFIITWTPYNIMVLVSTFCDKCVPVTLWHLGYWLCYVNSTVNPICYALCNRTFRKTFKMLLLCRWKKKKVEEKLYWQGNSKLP
Procedure: as §1, §4, §3

[8] = target: T4, V1A (h) Vasopressin/Oxytocin; experiment: Cell-based functional GPCR assay, antagonist effect; conditions: read-out: % Inhibition of Control Agonist Response
Procedure: as §1, §4, §3

NK1 (h) Tachykinin [9] = target: T5, NK1 (h) Tachykinin; experiment: as above; conditions: read-out: % Inhibition of Control Agonist Response
Procedure: as §1, §4, §3

5-HT1A (h) Serotonin [10] = target: T6, 5-HT1A (h) Serotonin; experiment: as above; conditions: read-out: % Inhibition of Control Agonist Response
Procedure: as §1, §4, §3

[11] = target: T7, M5 (h) Acetylcholine (muscarinic); experiment: as above; conditions: read-out: % Inhibition of Control Agonist Response
Procedure: as §1, §4, §3

D4 (h) Dopamine [12] = target: T1, D4 (h) Dopamine; experiment: Cell-based functional GPCR assay, agonist effect (cAMP)
Procedure: as §1, §2, §3

D3 (h) Dopamine [13] = target: T2, D3 (h) Dopamine; experiment: as above
Procedure: as §1, §2, §3

D1 (h) Dopamine [14] = target: T3, D1 (h) Dopamine; experiment: as above; conditions: read-out: % of Control Agonist Response
Procedure: as §1, §2, §3

NK1 (h) Tachykinin [15] = target: T5, NK1 (h) Tachykinin; parameters: method as in Eurofins Panlab; conditions: as reported by Eurofins Panlab, ref Eurofins Panlab, read-out: Reference Antagonists of Respective Target Receptors IC50; cited from earlier work
[16] = 25 μM, read-out: % of Control Agonist Response
[17] = 50 μM, read-out: % of Control Agonist Response
[18] = read-out: EC50 (concentration producing a half-maximal agonist response)

T5 sequence (P25103 whole entry): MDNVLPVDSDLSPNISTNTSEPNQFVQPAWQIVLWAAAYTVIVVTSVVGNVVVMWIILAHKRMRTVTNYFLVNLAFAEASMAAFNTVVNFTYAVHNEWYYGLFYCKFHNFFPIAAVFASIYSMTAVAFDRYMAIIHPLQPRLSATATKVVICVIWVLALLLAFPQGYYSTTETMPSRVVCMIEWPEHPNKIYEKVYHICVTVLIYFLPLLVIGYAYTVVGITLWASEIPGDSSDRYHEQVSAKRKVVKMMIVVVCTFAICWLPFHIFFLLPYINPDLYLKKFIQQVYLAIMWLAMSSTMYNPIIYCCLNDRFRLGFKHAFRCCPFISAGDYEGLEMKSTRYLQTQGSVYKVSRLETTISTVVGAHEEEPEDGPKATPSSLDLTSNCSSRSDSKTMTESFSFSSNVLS
T2 sequence (P35462 whole entry): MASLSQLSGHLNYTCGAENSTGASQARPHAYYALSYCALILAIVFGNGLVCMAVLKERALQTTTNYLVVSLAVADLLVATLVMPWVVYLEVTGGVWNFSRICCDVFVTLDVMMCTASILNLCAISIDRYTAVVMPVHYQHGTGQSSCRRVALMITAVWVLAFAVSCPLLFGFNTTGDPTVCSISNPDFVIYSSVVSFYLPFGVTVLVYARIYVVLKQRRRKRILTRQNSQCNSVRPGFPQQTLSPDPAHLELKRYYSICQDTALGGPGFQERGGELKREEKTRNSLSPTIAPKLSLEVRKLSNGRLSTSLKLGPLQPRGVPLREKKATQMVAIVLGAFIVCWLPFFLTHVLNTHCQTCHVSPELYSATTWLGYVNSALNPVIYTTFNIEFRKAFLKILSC
T3 sequence (P21728 whole entry): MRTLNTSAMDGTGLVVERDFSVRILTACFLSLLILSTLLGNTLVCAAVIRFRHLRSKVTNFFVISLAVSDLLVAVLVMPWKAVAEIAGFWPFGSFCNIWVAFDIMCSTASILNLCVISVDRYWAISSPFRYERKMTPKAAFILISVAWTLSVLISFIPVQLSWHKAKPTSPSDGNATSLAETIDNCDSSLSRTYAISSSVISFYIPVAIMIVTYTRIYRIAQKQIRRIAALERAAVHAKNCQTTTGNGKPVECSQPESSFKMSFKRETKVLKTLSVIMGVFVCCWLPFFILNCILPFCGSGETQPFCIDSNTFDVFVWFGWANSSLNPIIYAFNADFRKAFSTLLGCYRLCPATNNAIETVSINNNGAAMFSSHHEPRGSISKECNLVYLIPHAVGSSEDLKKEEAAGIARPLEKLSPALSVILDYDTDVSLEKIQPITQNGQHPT
T4 sequence (P37288 whole entry): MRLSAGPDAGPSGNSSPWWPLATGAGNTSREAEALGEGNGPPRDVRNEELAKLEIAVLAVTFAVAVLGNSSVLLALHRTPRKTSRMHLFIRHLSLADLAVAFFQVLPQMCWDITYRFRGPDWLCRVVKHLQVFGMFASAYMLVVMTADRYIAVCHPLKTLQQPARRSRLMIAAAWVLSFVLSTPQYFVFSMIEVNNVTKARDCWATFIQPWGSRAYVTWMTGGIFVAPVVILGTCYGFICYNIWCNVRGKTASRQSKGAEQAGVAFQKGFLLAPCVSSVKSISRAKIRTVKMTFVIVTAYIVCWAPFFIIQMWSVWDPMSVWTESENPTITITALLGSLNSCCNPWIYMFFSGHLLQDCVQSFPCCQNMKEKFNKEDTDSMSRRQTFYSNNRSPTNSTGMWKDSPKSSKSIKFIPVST

## Oc1cc(O)cc(Oc2c(O)cc(O)c3c2Oc2c(O)cc(O)cc2O3)c1 [Eckol, eckol]
D4 (h) Dopamine [1]; 25 μM
  inhibition at 25 µM: 1.33 ± 1.7%
D4 (h) Dopamine [1]; 50 μM
  inhibition at 50 µM: -3.33 ± 4.7%
D3 (h) Dopamine [2]; 25 μM
  inhibition at 25 µM: -9 ± 6.98%
D3 (h) Dopamine [2]; 50 μM
  inhibition at 50 µM: -15.1 ± 2.51%
D1 (h) Dopamine [3]; 25 μM
  inhibition at 25 µM: 11.6 ± 2.15%
D1 (h) Dopamine [3]; 50 μM
  inhibition at 50 µM: 1.89 ± 1.62%
[4]; 25 μM
  activity at 25 µM: -8.91 ± 3.2%
[4]; 50 μM
  activity at 50 µM: -12.5 ± 0.51%
NK1 (h) Tachykinin [5]; 25 μM
  activity at 25 µM: -2.32 ± 0.26%
NK1 (h) Tachykinin [5]; 50 μM
  activity at 50 µM: -2.99 ± 0.21%
5-HT1A (h) Serotonin [6]; 25 μM
  activity at 25 µM: -1.78 ± 0.45%
5-HT1A (h) Serotonin [6]; 50 μM
  activity at 50 µM: -3.04 ± 1.23%
[7]; 25 μM
  activity at 25 µM: 0.38 ± 0.1%
[7]; 50 μM
  activity at 50 µM: 0.39 ± 0.46%
[8]; 25 μM
  inhibition at 25 µM: -13.5 ± 6.93%
[8]; 50 μM
  inhibition at 50 µM: -4.26 ± 11.1%
NK1 (h) Tachykinin [9]; 25 μM
  inhibition at 25 µM: -11.3 ± 6.37%
NK1 (h) Tachykinin [9]; 50 μM
  inhibition at 50 µM: -4.32 ± 3.33%
5-HT1A (h) Serotonin [10]; 25 μM
  inhibition at 25 µM: 6.17 ± 10.3%
5-HT1A (h) Serotonin [10]; 50 μM
  inhibition at 50 µM: 3.49 ± 4.33%
[11]; 25 μM
  inhibition at 25 µM: 1 ± 0.4%
[11]; 50 μM
  inhibition at 50 µM: -4.8 ± 2.25%
D4 (h) Dopamine [12]; [16]
  activity at 25 µM: 36.5 ± 10.9%
D4 (h) Dopamine [12]; [17]
  activity at 50 µM: 54.7 ± 7.05%
D4 (h) Dopamine [12]; [18]
  EC50: 42.6 ± 2.54 µM
D3 (h) Dopamine [13]; [16]
  activity at 25 µM: 10.6 ± 4.16%
D3 (h) Dopamine [13]; [17]
  activity at 50 µM: 53.1 ± 6.67%
D3 (h) Dopamine [13]; [18]
  EC50: 48.6 ± 3.21 µM
D1 (h) Dopamine [14]; 25 μM
  activity at 25 µM: -0.58 ± 2.46%
D1 (h) Dopamine [14]; 50 μM
  activity at 50 µM: -2.77 ± 1.27%

## FC(F)(F)c1cc(CO[C@H]2CCCN[C@H]2c2ccccc2)cc(C(F)(F)F)c1 [L 733,060]
NK1 (h) Tachykinin [15]
  IC50: 0.21 nM
